Measurements taken from patent EP0105692B1, “6-H-dibenz(b,e)(1,4)oxathiepin derivatives and their preparation” (MERCK FROSST CANADA INC., priority 1982, dated 1984).

Key:
[1] = test system: PGEA-induced bronchoconstriction (R2); test: Inhibition of PGEA-induced bronchoconstriction in the guinea pig in vivo; conditions: Cavia porcellus, IV injection
[2] = test system: arachidonic acid induced bronchoconstriction; test: Arachidonic acid induced bronchoconstriction and hypotension in the anaesthetized dog; type: in vivo; conditions: intraduodenal administration

SMILES: O=S1(=O)c2ccccc2COc2ccc(CO)cc21 [Example 13, 2-Hydroxymethy!-6H-dibenz[b,e][1,4]oxathiepin-11,11-dioxide]
- ED50 [1]: 10.5 mg/kg
- inhibition of arachidonic acid induced bronchoconstriction [2]: inhibited
- inhibition of arachidonic acid induced hypotension [2]: not
